The subject of data set [1] is TNF-α production in THP-1 cells. The data set can be described thus: THP-1 cytological TNFa ELISA assay (LPS-stimulated). Type of data set: cell-based. The conditions noted are these: Homo sapiens, TNF-α in culture supernatant, 150 ng/mL LPS, 18 hours. How it is done:
THP-1 human acute […] leukemia cells were purchased from ATCC (Cat #TIB-202) and cultured at 37° C. in 5% CO2 incubator. The composition of medium was RPMI1640 (Gibco, Cat #22400-105), and the supplementary compositions were 10% FBS (Gibco, Cat #10091148); 1% PenStrep (Gibco, Cat #15140); 0.05 mM 2-Mercaptoethanol (Sigma, Cat #M6250).
TNF-α Elisa kit was used to detect the content of TNF-α in cell culture supernatant samples. TNF-α was produced by stimulating THP-1 cells with 150 ng/mL LPS (Sigma, Cat #L6529).
THP-1 cells cultured normally at logarithmic growth stage were seeded in a 96-well plate (Corning #3599) at a certain concentration (1*10^5/100 μL) and then put into a cell incubator for incubation. After two hours, 16.7 μL of different concentrations of the compound to be tested (8*final concentration) were added and incubated in an incubator. After one hour, 16.7 μL of 1200 ng/mL LPS was added and incubated in an incubator. After 18 hours, the culture supernatant samples were collected by centrifugation, and the content of TNF-α could be detected by TNF-α Elisa kit. Finally, OD signals (OD450-OD570) were read on envision board reader.
The OD450-OD570 signal value was converted into a percentage inhibition rate. Inhibition rate %=(ZPE−sample)/(ZPE−HPE)*100.
“HPE” refers to the OD450-OD570 signal value of the control well without LPS stimulated cells, and “ZPE” refers to the OD450-OD570 signal value of the control well with LPS stimulated cells. The IC50 value of the compound was calculated by XLFit in the excel add-in. Y=Bottom+(Top−Bottom)/(1+(IC50/X)^HillSlope). Equation: […]
On the technique in general: In an ELISA, binding on a coated surface is turned into a signal by an enzyme label.

A further data set deals with T1, human BTK (Homo sapiens, UniProt Q06187).
T1 construct: purchased Reaction Biology Corp
The data set is described as follows: In vitro BTK kinase activity, 33P isotope-labeled kinase activity assay (Reaction Biology Corp). It counts as biochemical. Conditions: 33P-ATP, 2 hours at room temperature. The method, then:
The IC50 values were determined using ^33P isotope-labeled kinase activity assay (Reaction Biology Corp) to evaluate the inhibitory ability of the tested compounds on human BTK.
Buffer conditions: 20 mM Hepes (pH 7.5), 10 mM MgCl2, 1 mM EGTA, 0.02% Brij35, 0.02 mg/mL BSA, 0.1 mM Na3VO4, 2 mM DTT, 1% DMSO.
Test procedure: At room temperature, the tested compound was dissolved in DMSO to prepare a 10 mM solution for later use. The substrate was dissolved in a newly prepared buffer solution, and the tested BTK kinase was added thereto and mixed evenly. The compound dissolved in DMSO was added to the kinase reaction mixture through Echo 550 (Acoustic technology; Nanoliter range). After incubation for 20 minutes at room temperature, ^33P-ATP was added to initiate the reaction. The reaction was carried out at room temperature for 2 hours, and the radioactivity of the reaction liquid point was detected by filtration-binding method with P81 ion exchange filter paper. The kinase activity data were expressed by comparing the kinase activity of the group containing the tested compound with the kinase activity of the blank group (only containing DMSO), and the IC50 value was obtained by curve fitting by Prism4 software (GraphPad), the experimental results are shown in Table 10.

Another data set relates to TNF-α secretion. The data set can be described thus: In vivo pharmacodynamic study of LPS-induced TNF-α secretion in SD rats. The conditions noted are these: SD rat, oral. The method, then:
SD rats were orally given the solvent, the positive drug dexamethasone (DEX, 0.5 mg/kg) and the tested compound, and LPS (1 mg/kg) was intraperitoneally injected 0.5 hours after the administration. Two hours after LPS injection, the animals were euthanized by CO2, and blood samples were collected from the heart and placed in an anticoagulant tube containing EDTA-K2, then partial anticoagulated blood was centrifuged to separate the plasma and the plasma was frozen at −80° C.
The plasma was taken out of the refrigerator at −80° C., thawed at room temperature, and the concentration of TNF-α in the plasma was detected according to the ELISA kit instructions.
The experimental data were expressed by Mean±standard error (Mean±SEM), and the level of TNF-α was expressed by One-way ANOVA, and p<0.05 was considered as a significant difference. The result of in vivo pharmacodynamic study of TNF-α secretion in SD rats induced by […] (LPS) are shown in FIG. 1

For data set [2], the system named is human B-cell lymphoma OCI-LY10 cell subcutaneous xenograft tumor. The data set can be described thus: Human B-cell lymphoma OCI-LY10 cell subcutaneous xenograft tumor mouse model. Type of data set: in vivo. How it is done: The objective of the experiment was to study the efficacy of WX001 as the test drug on human B-cell lymphoma OCI-LY10 cell subcutaneous xenograft tumor in CB17 SCID mouse model.
OCI-LY10 human B-cell lymphoma cells were cultured in a 37° C., 5% CO2 incubator.
OCI-LY10 tumor cells were cultured and passaged, and 0.2 mL (1×10^7 cells) OCI-LY10 cells were subcutaneously inoculated on the right back of each […] (with Matrigel, volume ratio 1:1), and the group administration was started when the average tumor volume reached 167 mm^3. The health status and death of animals were monitored every day, and routine examinations included observing the effects of tumor growth and drug treatment on daily behaviors of animals, such as behavioral activities, food intake and water intake, weight change (weight was measured twice a week), tumor size (tumor volume was measured twice a week), appearance signs or other abnormal conditions.
The experimental index was to investigate whether the tumor growth was inhibited, delayed or cured. Including the measurement of tumor volume (TV), and the calculation of the compound's anti-tumor efficacy using TGI (%) or the relative tumor proliferation rate T/C (%).
TV=0.5a×b^2, a and b represented the long diameter and short diameter of the tumor, respectively.
T/C %=TRTV/CRTV×100% (TRTV: RTV in treatment group; CRTV: RTV in negative control group). Relative tumor volume (RTV) was calculated according to the results of tumor measurement, and the calculation formula was RTV=Vt/V0, wherein V0 was the average tumor volume measured at the time of group administration (i.e., d0), Vt was the average tumor volume at a certain measurement, and TRTV and CRTV were the data taken at the same day.
(In general: In xenograft studies the graft and the host belong to different species.)

[3] abbreviates: 50 mpk, 18 days after the start of administration, p<0.001.

Each structure is given as a SMILES string.

The record followed here is patent US12459940B2, “Oxazole compound as multi-targeted inhibitor of IRAK4 and BTK” (SHANGHAI FOSUN PHARMACEUTICAL INDUSTRIAL DEVELOPMENT CO., …, priority 2019, dated 2025).

T1 sequence (Q06187 whole entry): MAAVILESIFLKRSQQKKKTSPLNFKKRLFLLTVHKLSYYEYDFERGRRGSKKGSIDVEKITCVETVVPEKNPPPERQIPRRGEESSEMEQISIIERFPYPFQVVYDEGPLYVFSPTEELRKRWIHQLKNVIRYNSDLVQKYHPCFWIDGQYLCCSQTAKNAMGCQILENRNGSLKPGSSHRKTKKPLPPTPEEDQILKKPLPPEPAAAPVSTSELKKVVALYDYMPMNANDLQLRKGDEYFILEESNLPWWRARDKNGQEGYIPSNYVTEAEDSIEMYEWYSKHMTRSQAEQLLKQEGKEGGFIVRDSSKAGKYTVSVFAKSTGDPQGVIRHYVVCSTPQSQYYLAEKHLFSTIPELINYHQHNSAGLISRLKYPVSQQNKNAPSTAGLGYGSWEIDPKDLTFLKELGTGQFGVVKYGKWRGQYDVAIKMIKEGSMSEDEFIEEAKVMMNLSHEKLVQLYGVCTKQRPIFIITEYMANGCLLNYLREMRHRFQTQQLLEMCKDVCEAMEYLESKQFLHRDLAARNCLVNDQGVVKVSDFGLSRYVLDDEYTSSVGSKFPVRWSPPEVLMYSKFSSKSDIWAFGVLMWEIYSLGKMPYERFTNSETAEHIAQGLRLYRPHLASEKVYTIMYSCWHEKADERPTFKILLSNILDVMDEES

For the compound `Cc1cc(-c2nc(C(=O)Nc3cn4cc(CCC(C)(C)O)nc4cc3N3CCCCC3)co2)ccn1` [WX001], the IC50 – broadly, the concentration that gives 50% inhibition – in data set [1] amounted to 124 nM. On human BTK, 6.7 nM corresponded to half-maximal inhibition (IC50). The “inhibitory effect on TNF-α secretion induced by LPS” value in the data set with TNF-α secretion (LPS 1 mg/kg intraperitoneal 0.5 hours after administration, plasma 2 hours after LPS) is listed as “significant inhibitory effect”. The “efficacy on LPS-induced TNF-α secretion compared with dexamethasone” value in the data set with TNF-α secretion (dose of 20 mpk) is listed as “equivalent to the efficacy of dexamethasone (DEX) at a dose of 0.5 mpk”. Besides, in data set [2] (50 mpk, 18 days), the “anti-tumor effect compared with the solvent control group” value is on record as “significant anti-tumor effect”. Also, in data set [2] (setting [3]), the T/C value is on record as 22% and the TGI value is 109%. In addition, in data set [2] (OCI-LY10 xenograft mice, 18 days of administration), the “drug tolerance (body weight, abnormality)” value is given as “well tolerated”.
